# From patent publication US20250304622A1, “SHORT APOLIPOPROTEIN E MIMETIC PEPTIDES AND METHODS OF USE” (The United States of America, as represented by the …, priority 2022, published 2025)
# Numbered stars: 1 amine (or outer) side, 2 acyl side, 3 side chain; on linkers, the order of the positions; unused ones are H or OH. Bridge positions count the residues as written; N and C are the ends. Square brackets hold non-standard residues; d marks the D form. Primed or numbered codes have the meaning given here. * marks the point of attachment. B5 = bis-pentenylglycine, C=CCCCC(CCCC=C)(N[*:1])C(=O)[*:2]; R8 = C=CCCCCCC[C@@](C)(N)C(=O)O; S8 = C=CCCCCCC[C@](C)(N)C(=O)O; αMeL = CC(C)C[C@](C)(N)C(=O)O; Octanoyl′ = not defined here; S5 = C=CCCC[C@](C)(N)C(=O)O; Myristyl = CCCCCCCCCCCCCC*; Octanoyl = CCCCCCCC(=O)*
# Key:
# [1] = tested on: Mouse Hepatitis Virus (MHV); assay: MHV-GFP replication in HeLa mCC1a cells; type: cell-based; conditions: 15 μM peptide, 16 hours, FIG. 11
# Excerpt: Mouse Hepatitis Virus (MHV) is a beta coronavirus that infects mice cells via the murine CEACAM1 receptor (mCC1a receptor). HeLa (human epithelium) cells that have been modified to express the mCC1a receptor can be infected with MHV. The recombinant MHV used in this experiment has been modified such that it contains additional nucleocapsid (N) protein segment which is N-terminally fused with a green fluorescence protein tag (GFP) (see Verheije et al., J. Virol. 84:11575-11579, 2010). When cells are infected with MHV, the MHV replicates generating more GFP and increasing the fluorescent signal.
# HeLa mCC1a cells were cultured in a 96 well plate. Cells were infected for 2 hours with MHV-GFP at 37° C. Viral stock solution was diluted 40-fold. Stock was prepared by infecting HeLa cells with MHV-GFP for 3 days and by collecting cellular media. Cells were washed with PBS and treated with media (DMEM plus 10% FBS, 100 IU/ml penicillin G, […] streptomycin, 0.5 mg/ml G418) containing ApoE peptides (15 μM) or media without peptide and incubated for 16 hours at 37° C. Cells were washed with PBS and total GFP fluorescence (ex/em 488/520) in cells was measured on the plate using a fluorescence plate reader.
# LDLR-ko HepG2 cells = assay: LDL uptake by heparinase treated LDLR-KO HepG2 cells; type: cell-based; conditions: heparinase pretreatment, FIG. 18B
# Method: (§1) Involvement of heparan sulfate proteoglycans (HSPGs) in peptide-mediated LDL uptake was tested. WT HepG2 cell were pretreated with a mixture of Heparinase I, II, and III (IBEX Pharmaceuticals) to degrade heparan sulfate chains on the cell surface. Next, LDL uptake studies were performed with OctaC-E139-150-S and MyrN-E141-150-amL peptides (FIGS. 18A-18C). […] Similarly, heparinase treatment attenuated MyrN-E141-150-amL mediated LDL uptake in WT HepG2 cells (FIG. 18C).
# ApoE-ko mice = assay: Single dose study in ApoE-ko mice, plasma total cholesterol and triglycerides; type: in vivo; conditions: for plasma total cholesterol / plasma triglyceride levels: ApoE-ko mice, 4.6 mg/kg (2.5 μmol/kg) intravenous; for plasma total cholesterol: FIG. 10A; for plasma triglyceride levels: effect transient, FIG. 10B; for lowering of plasma total cholesterol: ApoE-KO mice, 2.5 μmol/kg i.v. single dose, FIG. 20A
# Method: The effect of OctaC-E139-150 and OctaN-E139-150 peptides were tested in ApoE-ko mice. The mice were kept on a normal chow diet. At 3.5 months of age, 15 mice were divided into three groups of five mice each, as follows: 1) control group; 2) OctaC-E139-150 peptide group; and 3) OctaN-E139-150 peptide group. Peptides were dissolved in PBS at 1.5 mg/ml (810 μM OctaC-E139-150; 849 μM OctaN-E139-150). Mice were weighed one day before peptide administration and peptide amount was calculated for each mouse to receive 4.6 mg/kg peptide (2.5 μmol/kg). The calculated amount of 1.5 mg/ml peptide was placed in a syringe and normalized with PBS to 80 μl. The mice received intravenous injection of PBS (control) or the peptide. Blood samples were collected immediately prior to injection, and 1 hour, 3 hours, and 6 hours after injection. Blood was centrifuged at 3000 rpm at 4° C. for 20 minutes and plasma was separated (20-30 μl) and stored at 4° C. Plasma triglycerides and total cholesterol were measured the next day using L-type triglyceride M assay and The cholesterol E kit (Wako, FUJIFILM Medical Systems USA).
# MyrN-E139-150 and OctaN-E139-150 peptides were tested in a single dose ApoE-KO mouse study. ApoE-KO mice (n=9) were divided into 3 groups: control group (PBS), n=3; MyrN-E139-150 (2.5 μmol/kg; 4.6 mg/kg), n=3; and OctaN-E139-150 (2.5 μmol/kg; 4.4 mg/kg), n=3. Mice were fed normal chow diet for the whole study. Peptides were injected i.v. and blood samples were collected at pre-injection and 1 h, 3 h, and 6 h after the injection of the peptides. Measurement of plasma total cholesterol and triglycerides was as described in Example 2. The peptides lowered plasma total cholesterol (FIG. 20A; 37% at 3 h; 29% at 6 h) and triglycerides (FIG. 20B; 30-50% at 1 h).
# WT HepG2 cells [2] = assay: LDL uptake by heparinase treated WT HepG2 cells; type: cell-based; conditions: Heparinase I, II, and III pretreatment
# Method: as §1
# LDLR-KO mice = assay: Single dose LDLR-KO mouse study, plasma total cholesterol; type: in vivo; conditions: 2.5 μmol/kg (4.6 mg/kg) i.v. single dose, after 3 h and 6 h of injection, FIG. 21A
# Method: MyrN-E141-150-amL and OctaN-E141-150 were tested in a single dose LDLR-KO mouse study. LDLR-KO mice (n=9) were divided into 3 groups: control group (PBS), n=3; MyrN-E141-150-amL (2.5 μmol/kg; 4.6 mg/kg), n=3; and OctaN-E141-150 (2.5 μmol/kg; 4.4 mg/kg), n=3. Mice were fed normal chow diet for the whole study. Peptides were injected i.v. and blood samples were collected at pre-injection and 1 h, 3 h, 6 h and 24 h after the injection of the peptides. Measurement of plasma total cholesterol was as described in Example 2. MyrN-E141-150-amL lowered plasma total cholesterol around 15-30% after 3 h and 6 h of injection (FIG. 21A).
# WT HepG2 cells [3] = assay: Effect of heparin on peptide mediated LDL uptake in WT HepG2 cells; type: cell-based; conditions: 10 μM peptide, heparin 10 USP/ml, 1 h at 37° C., FIG. 19
# Method: Fluorescently labeled LDL (Alexa Fluor 568-NHS ester) at 50 μg/ml final protein concentration was preincubated with or without 10 μM MyrN-E141-150-amL peptide for 30 min at 37° C. (solutions made in DMEM (no phenol red, no serum) with 0.1% BSA). To some LDL and some LDL/peptide samples, heparin was added (10 USP/ml final conc.; heparin, sodium injection from porcine intestinal mucosa (Fresenius Kabi USA, Lake Zurich, IL)). Mixtures were preincubated for additional 5 min at 37° C. Next, WT HepG2 cells were incubated with the LDL/peptide/heparin mixtures for 1 h at 37° C. Lipoprotein uptake was assessed by flow cytometry. Heparin diminished the effect of MyrN-E141-150-amL peptide on LDL uptake in the wild type HepG2 cells (FIG. 19).
# [4] = low peptide dose, FIGS. 18A, 18C
substance,measurement,setting,value
"Ac-RVR(S5)ASH(B5)RKLRKR(S8)LR-NH2 (Ac-RVR[S5]ASH[B5]RKLRKR[S8]LR-NH2; staple 8-15, 4-8) [E134-150-Stitch]",MHV-GFP fluorescence (viral replication),[1],dramatic reductions
Ac-SH(R8)RKLRKR(S5)LR-Octanoyl (Ac-SH[R8]RKLRKR[S5]LR-{Octanoyl′}; staple 3-10) [OctaC-E139-150],effect of heparinase treatment on peptide mediated LDL uptake,LDLR-ko HepG2 cells,showed similar results
same,MHV-GFP fluorescence (viral replication),[1],dramatic reductions
same,plasma total cholesterol,ApoE-ko mice,significantly decreased
same,plasma triglyceride levels,ApoE-ko mice,significantly decreased
same,effect of heparinase treatment on peptide mediated LDL uptake,"WT HepG2 cells [2]; higher peptide concentrations, FIG. 18A",heparinase treatment had a lower effect
same,effect of heparinase treatment on peptide mediated LDL uptake,WT HepG2 cells [2]; [4],diminished low dose peptide effect on LDL uptake
Myristyl-(R8)RKLRKR(S5)L(alpha-methyl)R-NH2 (Myristyl-[R8]RKLRKR[S5][αMeL]R-NH2; staple 1-8; SMILES CCCCCCCCCCCCCCN[C@]1(C)CCCCCCC=CCCC[C@@](C)(C(=O)N[C@@](C)(CC(C)C)C(=O)N[C@@H](CCCNC(=N)N)C(N)=O)NC(=O)[C@H](CCCNC(=N)N)NC(=O)[C@H](CCCCN)NC(=O)[C@H](CCCNC(=N)N)NC(=O)[C@H](CC(C)C)NC(=O)[C@H](CCCCN)NC(=O)[C@H](CCCNC(=N)N)NC1=O) [MyrN-E141-150-amL],lowering of plasma total cholesterol,LDLR-KO mice,15-30%
same,effect of heparin on peptide effect on LDL uptake,WT HepG2 cells [3],diminished
same,effect of heparinase treatment on peptide mediated LDL uptake,WT HepG2 cells [2]; [4],attenuated
Myristyl-SH(R8)RKLRKR(S5)LR-NH2 (Myristyl-SH[R8]RKLRKR[S5]LR-NH2; staple 3-10; SMILES CCCCCCCCCCCCCCN[C@@H](CO)C(=O)N[C@@H](Cc1c[nH]cn1)C(=O)N[C@]1(C)CCCCCCC=CCCC[C@@](C)(C(=O)N[C@@H](CC(C)C)C(=O)N[C@@H](CCCNC(=N)N)C(N)=O)NC(=O)[C@H](CCCNC(=N)N)NC(=O)[C@H](CCCCN)NC(=O)[C@H](CCCNC(=N)N)NC(=O)[C@H](CC(C)C)NC(=O)[C@H](CCCCN)NC(=O)[C@H](CCCNC(=N)N)NC1=O) [MyrN-E139-150],lowering of plasma total cholesterol,ApoE-ko mice; at 3 h,37%
same,lowering of plasma total cholesterol,ApoE-ko mice; at 6 h,29%
Octanoyl-SH(R8)RKLRKR(S5)LR-NH2 (Octanoyl-SH[R8]RKLRKR[S5]LR-NH2; staple 3-10; SMILES CCCCCCCC(=O)N[C@@H](CO)C(=O)N[C@@H](Cc1c[nH]cn1)C(=O)N[C@]1(C)CCCCCCC=CCCC[C@@](C)(C(=O)N[C@@H](CC(C)C)C(=O)N[C@@H](CCCNC(=N)N)C(N)=O)NC(=O)[C@H](CCCNC(=N)N)NC(=O)[C@H](CCCCN)NC(=O)[C@H](CCCNC(=N)N)NC(=O)[C@H](CC(C)C)NC(=O)[C@H](CCCCN)NC(=O)[C@H](CCCNC(=N)N)NC1=O) [OctaN-E139-150],lowering of plasma total cholesterol,ApoE-ko mice; at 3 h,37%
same,lowering of plasma total cholesterol,ApoE-ko mice; at 6 h,29%
same,plasma total cholesterol,ApoE-ko mice,significantly decreased
same,plasma triglyceride levels,ApoE-ko mice,significantly decreased
